One test deals with yeast HSP90 (Saccharomyces cerevisiae, UniProt P02829). In words: Hsp90 ATPase assay (malachite green). It counts as biochemical. Here is the method:
(§1) For present invention, the ATPase activity of yeast HSP90 was measured using malachite green assay. Formula I compounds for primary antitumoral activity were treated in human colorectal cancer cells (HCT116) showing increased expression levels of HSP90 client protein and cotoxicity IC50 values was measured as a result.

Test [1] deals with human colorectal cancer cells (HCT116). In words: Growth inhibition assay (cytotoxicity) in HCT116. It counts as cell-based. The note with it: HCT-116. As for the experimental part:
as §1

Sequence of yeast HSP90 (P02829 whole entry): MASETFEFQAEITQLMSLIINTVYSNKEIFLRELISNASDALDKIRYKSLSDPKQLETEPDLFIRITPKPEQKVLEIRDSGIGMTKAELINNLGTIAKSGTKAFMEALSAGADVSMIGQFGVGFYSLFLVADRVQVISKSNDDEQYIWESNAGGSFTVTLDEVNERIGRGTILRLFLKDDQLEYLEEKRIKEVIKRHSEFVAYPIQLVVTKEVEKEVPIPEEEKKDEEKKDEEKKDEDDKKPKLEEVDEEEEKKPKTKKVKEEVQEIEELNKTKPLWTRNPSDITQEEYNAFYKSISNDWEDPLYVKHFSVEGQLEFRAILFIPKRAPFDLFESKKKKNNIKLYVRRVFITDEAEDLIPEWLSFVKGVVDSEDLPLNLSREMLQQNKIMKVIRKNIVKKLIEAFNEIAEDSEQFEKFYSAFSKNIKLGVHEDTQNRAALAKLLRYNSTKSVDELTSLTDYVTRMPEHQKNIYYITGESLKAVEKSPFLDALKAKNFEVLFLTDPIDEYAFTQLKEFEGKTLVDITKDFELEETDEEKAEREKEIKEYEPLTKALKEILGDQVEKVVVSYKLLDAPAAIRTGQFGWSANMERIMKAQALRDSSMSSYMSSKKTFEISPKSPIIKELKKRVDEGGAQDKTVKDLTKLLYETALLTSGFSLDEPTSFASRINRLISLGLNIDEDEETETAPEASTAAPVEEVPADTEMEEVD

By IC50 is commonly meant the point on the concentration scale where inhibition reaches its midpoint. High values mean weaker potency in that assay, low ones greater potency in that assay. On to `CCNC(=O)c1noc(-c2cc(C(C)C)c(O)cc2O)c1-c1cc(COS(C)(=O)=O)no1` [Compound I-32, (5-(2,4-Dihydroxy-5-isopropylphenyl)-3-(ethylcarbamoyl)-4,5′-biisoxazol-3′-yl)methyl methanesulfonate], for which the IC50 (against yeast HSP90; in test [1]) was < 500 nM in each case.
Regarding `CCNC(=O)c1noc(-c2cc(C(C)C)c(O)cc2O)c1-c1cc(COCC(=O)O)no1` [Compound I-33, 2-((5-(2,4-Dihydroxy-5-isopropylphenyl)-3-(ethylcarbamoyl)-4,5′-biisoxazol-3′-yl)methoxy)acetic acid], the IC50 (against yeast HSP90; in test [1]) was > 1000 nM each time.
Take `CCNC(=O)c1noc(-c2cc(C(C)C)c(O)cc2O)c1-c1cc(CNC(=O)CC)no1` [Compound I-34, 5-(2,4-Dihydroxy-5-isopropylphenyl)-N-ethyl-3′-(propionamidomethyl)-4,5′-biisoxazole-3-carboxamide]: the IC50 (on yeast HSP90; in test [1]) was < 500 nM each time.
For the molecule `CCNC(=O)c1noc(-c2cc(C(C)C)c(O)cc2O)c1-c1cc(CC#N)no1` [Compound I-35, 3′-(Cyanomethyl)-5-(2,4-dihydroxy-5-isopropylphenyl)-N-ethyl-4,5′-biisoxazole-3-carboxamide], the IC50 (at yeast HSP90; in test [1]) was < 500 nM each time.
Take `CCNC(=O)c1noc(-c2cc(C(C)C)c(O)cc2O)c1-c1cc(COCC(N)=O)no1` [Compound I-36, 3′-((2-Amino-2-oxoethoxy)methyl)-5-(2,4-dihydroxy-5-isopropylphenyl)-N-ethyl-4,5′-biisoxazole-3-carboxamide]: the IC50 (at yeast HSP90; in test [1]) was < 500 nM throughout.
In the case of `CCNC(=O)c1noc(-c2cc(C(C)C)c(O)cc2O)c1-c1cc(C)no1` [Compound I-37, 5-(2,4-Dihydroxy-5-isopropylphenyl)-N-ethyl-3′-methyl-4,5′-biisoxazole-3-carboxamide], the IC50 (against yeast HSP90; in test [1]) was < 500 nM in each case.
For `CCNC(=O)c1noc(-c2cc(C(C)C)c(O)cc2O)c1-c1cc(CN2CCCCC2)no1` [Compound I-38, 5-(2,4-Dihydroxy-5-isopropylphenyl)-N-ethyl-3′-(piperidin-1-ylmethyl)-4,5′-biisoxazole-3-carboxamide], the IC50 was 500 to 1000 nM at yeast HSP90 and < 500 nM in test [1].
Regarding `CCNC(=O)c1noc(-c2cc(C(C)C)c(O)cc2O)c1-c1cc(CN2CCCC2)no1` [Compound I-39, 5-(2,4-Dihydroxy-5-isopropylphenyl)-N-ethyl-3′-(pyrrolidin-1-ylmethyl)-4,5′-biisoxazole-3-carboxamide], the IC50 against yeast HSP90 is 500 to 1000 nM; in test [1], < 500 nM.
On to `CCNC(=O)c1noc(-c2cc(C(C)C)c(O)cc2O)c1-c1cc(CNC(C)C)no1` [Compound I-40, 5-(2,4-Dihydroxy-5-isopropylphenyl)-N-ethyl-3′-((isopropylamino)methyl)-4,5′-biisoxazole-3-carboxamide], for which the results for the IC50 (against yeast HSP90; in test [1]) were 500 to 1000 nM and < 500 nM, respectively.
Turning to `CCNC(=O)c1noc(-c2cc(C(C)C)c(O)cc2O)c1-c1cc(CN(C)C)no1` [Compound I-41, 5-(2,4-Dihydroxy-5-isopropylphenyl)-3′-((dimethylamino)methyl)-N-ethyl-4,5′-biisoxazole-3-carboxamide], the IC50 (at yeast HSP90; in test [1]) was < 500 nM throughout.
Consider `CCNC(=O)c1noc(-c2cc(C(C)C)c(O)cc2O)c1-c1cc(CNC)no1` [Compound I-42, 5-(2,4-Dihydroxy-5-isopropylphenyl)-N-ethyl-3′-((methylamino)methyl)-4,5′-biisoxazole-3-carboxamide], for which the IC50 (at yeast HSP90; in test [1]) was < 500 nM in each case.
Consider `CCNC(=O)c1noc(-c2cc(C(C)C)c(O)cc2O)c1-c1cc(CN2CCN(C)CC2)no1` [Compound I-43, 5-(2,4-Dihydroxy-5-isopropylphenyl)-N-ethyl-3′-((4-methylpiperazin-1-yl)methyl)-4,5′-biisoxazole-3-carboxamide], for which the IC50 against yeast HSP90 was 500 to 1000 nM; in test [1] it was < 500 nM.
Turning to `C=CCNCc1cc(-c2c(C(=O)NCC)noc2-c2cc(C(C)C)c(O)cc2O)on1` [Compound I-44, 3′-((Allylamino)methyl)-5-(2,4-dihydroxy-5-isopropylphenyl)-N-ethyl-4,5′-biis oxazole-3-carboxamide], the half-inhibitory concentration (IC50) (against yeast HSP90; in test [1]) was < 500 nM throughout.
`CCCN(CCC)Cc1cc(-c2c(C(=O)NCC)noc2-c2cc(C(C)C)c(O)cc2O)on1` [Compound I-45, 5-(2,4-Dihydroxy-5-isopropylphenyl)-3′-((dipropylamino)methyl)-N-ethyl-4,5′-biisoxazole-3-carboxamide]: the IC50 (at yeast HSP90; in test [1]) was < 500 nM throughout.
For the molecule `CCNC(=O)c1noc(-c2cc(C(C)C)c(O)cc2O)c1-c1cc(-c2ccsc2)no1` [Compound I-46, 5-(2,4-Dihydroxy-5-isopropylphenyl)-N-ethyl-3′-(thiophen-3-yl)-4,5′-biisoxazole-3-carboxamide], the IC50 on yeast HSP90 is 500 to 1000 nM; in test [1] it was < 500 nM.
For the molecule `CCNC(=O)c1noc(-c2cc(C(C)C)c(O)cc2O)c1-c1cc(CN2CCSCC2)no1` [Compound I-47, 5-(2,4-Dihydroxy-5-isopropylphenyl)-N-ethyl-3′-(thiomorpholinomethyl)-4,5′-biisoxazole-3-carboxamide], the IC50 (at yeast HSP90; in test [1]) was < 500 nM throughout.
With `CCNC(=O)c1noc(-c2cc(C(C)C)c(O)cc2O)c1-c1cc(C#N)no1` [Compound I-48, 3′-Cyano-5-(2,4-dihydroxy-5-isopropylphenyl)-N-ethyl-4,5′-biisoxazole-3-carboxamide], the IC50 at yeast HSP90 is 500 to 1000 nM; in test [1] it was < 500 nM.
For `CCNC(=O)c1noc(-c2cc(C(C)C)c(O)cc2O)c1-c1cc(-c2ccccc2)no1` [Compound I-49, 5-(2,4-Dihydroxy-5-isopropylphenyl)-N-ethyl-3′-phenyl-4,5′-biisoxazole-3-carboxamide], the IC50 (on yeast HSP90; in test [1]) was 500 to 1000 nM in each case.
For the molecule `CCNC(=O)c1noc(-c2cc(C(C)C)c(O)cc2O)c1-c1cc(C(=O)N2CCSCC2)no1` [Compound I-50, 5-(2,4-Dihydroxy-5-isopropylphenyl)-N-ethyl-3′-(thiomorpholine-4-carbonyl)-4,5′-biisoxazole-3-carboxamide], the IC50 against yeast HSP90 was 500 to 1000 nM; in test [1], < 500 nM.
Regarding `CCNC(=O)c1noc(-c2cc(C(C)C)c(O)cc2O)c1-c1cc(C(OC)OC)no1` [Compound I-51, 5-(2,4-Dihydroxy-5-isopropylphenyl)-3′-(dimethoxymethyl)-N-ethyl-4,5′-biisoxazole-3-carboxamide], the half-inhibitory concentration (IC50) (on yeast HSP90; in test [1]) was < 500 nM throughout.
As to `CCNC(=O)c1noc(-c2cc(C(C)C)c(O)cc2O)c1-c1cc(/C=N/OC)no1` [Compound I-52, 5-(2,4-Dihydroxy-5-isopropylphenyl)-N-ethyl-3′-((methoxyimino)methyl)-4,5′-biisoxazole-3-carboxamide], the IC50 (against yeast HSP90; in test [1]) was < 500 nM each time.
For `CCNC(=O)c1noc(-c2cc(C(C)C)c(O)cc2O)c1-c1cc(/C=N/O)no1` [Compound I-53, 5-(2,4-Dihydroxy-5-isopropylphenyl)-N-ethyl-3′-((hydroxyimino)methyl)-4,5′-biisoxazole-3-carboxamide], the IC50 against yeast HSP90 was 500 to 1000 nM; in test [1], < 500 nM.
In the case of `C=CCO/N=C/c1cc(-c2c(C(=O)NCC)noc2-c2cc(C(C)C)c(O)cc2O)on1` [Compound I-54, 3′-((Allyloxyimino)methyl)-5-(2,4-dihydroxy-5-isopropylphenyl)-N-ethyl-4,5′-biisoxazole-3-carboxamide], the IC50 was 500 to 1000 nM at yeast HSP90 and < 500 nM in test [1].
Turning to `CCNC(=O)c1noc(-c2cc(C(C)C)c(O)cc2O)c1-c1cc(/C=N/OCC)no1` [Compound I-55, 5-(2,4-Dihydroxy-5-isopropylphenyl)-3′-((ethoxyimino)methyl)-N-ethyl-4,5′-biisoxazole-3-carboxamide], the IC50 at yeast HSP90 is 500 to 1000 nM; in test [1] it was < 500 nM.
`CCNC(=O)c1noc(-c2cc(C(C)C)c(O)cc2O)c1-c1cc(C(=O)NC)no1` [Compound I-56, 5-(2,4-Dihydroxy-5-isopropylphenyl)-N^3-ethyl-N^3′-methyl-4,5′-biisoxazole-3,3′-dicarboxamide]: the IC50 (against yeast HSP90; in test [1]) was < 500 nM each time.
Turning to `CCNC(=O)c1noc(-c2cc(C(C)C)c(O)cc2O)c1-c1noc(C(F)(F)F)n1` [Compound I-57, 5-(2,4-Dihydroxy-5-isopropylphenyl)-N-ethyl-4-(5-(trifluoromethyl)-1,2,4-oxadiazol-3-yl)isoxazole-3-carboxamide], the IC50 at yeast HSP90 is 500 to 1000 nM; in test [1], < 500 nM.
On to `CCNC(=O)c1noc(-c2cc(C(C)C)c(O)cc2O)c1-c1noc(C(=O)OC)n1` [Compound I-58, Methyl 3-(5-(2,4-dihydroxy-5-isopropylphenyl)-3-(ethylcarbamoyl)isoxazol-4-yl)-1,2,4-oxadiazole-5-carboxylate], for which the IC50 is 500 to 1000 nM against yeast HSP90 and > 1000 nM in test [1].
Take `CCNC(=O)c1nc(-c2c(C(=O)NCC)noc2-c2cc(C(C)C)c(O)cc2O)no1` [Compound I-59, 3-(5-(2,4-Dihydroxy-5-isopropylphenyl)-3-(ethylcarbamoyl)isoxazol-4-yl)-N-ethyl-1,2,4-oxadiazole-5-carboxamide]: the half-inhibitory concentration (IC50) is 500 to 1000 nM against yeast HSP90 and < 500 nM in test [1].
Regarding `CCNC(=O)c1noc(-c2cc(C(C)C)c(O)cc2O)c1-c1noc(-c2ccccc2)n1` [Compound I-61, 5-(2,4-Dihydroxy-5-isopropylphenyl)-N-ethyl-4-(5-phenyl-1,2,4-oxadiazol-3-yl) isoxazole-3-carboxamide], the IC50 (on yeast HSP90; in test [1]) was < 500 nM throughout.
As to `CCNC(=O)c1noc(-c2cc(C(C)C)c(O)cc2O)c1-c1noc(CC)n1` [Compound I-62, 5-(2,4-Dihydroxy-5-isopropylphenyl)-N-ethyl-4-(5-ethyl-1,2,4-oxadiazol-3-yl)isoxazole-3-carboxamide], the IC50 (against yeast HSP90; in test [1]) was < 500 nM each time.

The record behind these values is patent US20120309750A1, “5-MEMBERED HETEROCYCLE DERIVATIVES AND MANUFACTURING PROCESS THEREOF” (ILDONG PHARM CO., LTD., priority 2010, published 2012).
